Results reported in the NIST ThermoML archive (doi:10.1021/je050366x).
Several values for one entry are separate records, joined by “and”; a condition that tells them apart may be missing. Equal entries are not always repeated.

Assay: xn = mol fraction of the nth substance listed
Conditions: for surface tension liquid-gas: Ring tensiometer; for mass density: 100 kPa, Liquid

O=C(O)C(=O)O [ethanedioic acid] + O
x1 = 0.00716
Conditions | surface tension liquid-gas [mN/m]
280.2 K | 73.7
280.5 K | 73.7
281.1 K | 73.8
281.2 K | 73.7
283.9 K | 73.3
284.5 K | 73.2
285.1 K | 73.2
285.7 K | 73
288.2 K | 72.7
288.7 K | 72.4
289.7 K | 72.6
290.1 K | 72.4
292.2 K | 72
293 K | 71.9
293.7 K | 71.9
294.3 K | 71.7
296.2 K | 71.3
297.5 K | 71.2
298 K | 71.2
298.5 K | 71.1
301.2 K | 70.4
302.1 K | 70.6
302.8 K | 70.3
304.7 K | 70

298 K, Pycnometric method
Conditions | mass density [kg/m3]
x1 = 0.002 | 996
x1 = 0.003 | 1001
x1 = 0.005 | 1008
x1 = 0.007 | 1012
x1 = 0.008 | 1016
x1 = 0.01 | 1019
x1 = 0.012 | 1026
x1 = 0.013 | 1030
x1 = 0.015 | 1034

O=C(O)CCC(=O)O [butanedioic acid] + O
Conditions | mass density | surface tension liquid-gas
279.9 K, x1 = 0.00716 | – | 70 mN/m
280.1 K, x1 = 0.00716 | – | 69.2 mN/m
280.2 K, x1 = 0.00716 | – | 70.3 mN/m
280.6 K, x1 = 0.00716 | – | 70 mN/m
284 K, x1 = 0.00716 | – | 69 mN/m
284.3 K, x1 = 0.00716 | – | 69.7 mN/m
284.7 K, x1 = 0.00716 | – | 69.3 mN/m
284.8 K, x1 = 0.00716 | – | 69.5 mN/m
285 K, x1 = 0.00716 | – | 69.6 mN/m
288.4 K, x1 = 0.00716 | – | 68.6 mN/m
288.9 K, x1 = 0.00716 | – | 69 mN/m and 68.8 mN/m and 68.7 mN/m
292.6 K, x1 = 0.00716 | – | 67.8 mN/m
293.1 K, x1 = 0.00716 | – | 68.5 mN/m
293.3 K, x1 = 0.00716 | – | 68.2 mN/m
293.4 K, x1 = 0.00716 | – | 68.2 mN/m
293.6 K, x1 = 0.00716 | – | 68.4 mN/m
296.8 K, x1 = 0.00716 | – | 67.2 mN/m
297.4 K, x1 = 0.00716 | – | 67.7 mN/m
297.6 K, x1 = 0.00716 | – | 68 mN/m
297.8 K, x1 = 0.00716 | – | 67.8 mN/m
297.9 K, x1 = 0.00716 | – | 67.8 mN/m
298 K, x1 = 0.0011 | 991 kg/m3 | 70.9 mN/m
298 K, x1 = 0.0012 | 997 kg/m3 | –
298 K, x1 = 0.0022 | 993 kg/m3 and 1003 kg/m3 | 70 mN/m
298 K, x1 = 0.0028 | 996 kg/m3 | 69.8 mN/m
298 K, x1 = 0.0033 | 997 kg/m3 | 69.4 mN/m
298 K, x1 = 0.0037 | 1001 kg/m3 | –
298 K, x1 = 0.0045 | 998 kg/m3 | 68.9 mN/m
298 K, x1 = 0.0047 | 1002 kg/m3 | –
298 K, x1 = 0.0056 | 1001 kg/m3 | 68.5 mN/m
298 K, x1 = 0.0067 | 1002 kg/m3 | 68.1 mN/m
298 K, x1 = 0.0068 | 1008 kg/m3 | –
298 K, x1 = 0.0071 | – | 67.7 mN/m
298 K, x1 = 0.0078 | 1005 kg/m3 | 67.6 mN/m
298 K, x1 = 0.0089 | 1007 kg/m3 | 67.3 mN/m
298 K, x1 = 0.01 | 1009 kg/m3 | 66.6 mN/m
298 K, x1 = 0.0107 | – | 66.9 mN/m
298 K, x1 = 0.011 | 1010 kg/m3 | –
298 K, x1 = 0.0111 | – | 66.4 mN/m
298 K, x1 = 0.0117 | – | 66.7 mN/m
301.7 K, x1 = 0.00716 | – | 67.5 mN/m
301.8 K, x1 = 0.00716 | – | 67.1 mN/m
302.3 K, x1 = 0.00716 | – | 67.3 mN/m
302.9 K, x1 = 0.00716 | – | 67.1 mN/m

O=C(O)/C=C\C(=O)O [cis-1,4-butenedioic acid] + O
Conditions | surface tension liquid-gas
278.3 K, x1 = 0.012 | 69.9 mN/m
278.7 K, x1 = 0.06 | 64.3 mN/m
279.2 K, x1 = 0.012 | 69.8 mN/m
280.4 K, x1 = 0.06 | 64.4 mN/m
280.5 K, x1 = 0.06 | 64.4 mN/m
283.5 K, x1 = 0.012 | 69.2 mN/m
283.5 K, x1 = 0.06 | 63.7 mN/m
283.7 K, x1 = 0.012 | 69.4 mN/m
284.2 K, x1 = 0.06 | 64 mN/m
284.7 K, x1 = 0.06 | 63.9 mN/m
284.9 K, x1 = 0.06 | 63.5 mN/m
287.4 K, x1 = 0.012 | 68.7 mN/m
287.9 K, x1 = 0.012 | 68.6 mN/m
288.4 K, x1 = 0.06 | 63.4 mN/m
288.6 K, x1 = 0.06 | 63.6 mN/m
288.8 K, x1 = 0.06 | 63.1 mN/m
289.1 K, x1 = 0.06 | 63.2 mN/m
292.8 K, x1 = 0.012 | 68 mN/m and 68.2 mN/m
292.8 K, x1 = 0.06 | 62.8 mN/m
292.9 K, x1 = 0.06 | 62.6 mN/m
293.4 K, x1 = 0.06 | 62.9 mN/m
296.2 K, x1 = 0.06 | 62.1 mN/m
297 K, x1 = 0.012 | 67.5 mN/m
297.1 K, x1 = 0.06 | 62.4 mN/m
297.2 K, x1 = 0.012 | 67.7 mN/m
297.5 K, x1 = 0.012 | 67.6 mN/m
297.7 K, x1 = 0.06 | 62.3 mN/m
298 K, x1 = 0.008 | 68 mN/m
298 K, x1 = 0.0116 | 67.6 mN/m
298 K, x1 = 0.017 | 65.9 mN/m
298 K, x1 = 0.0267 | 64.1 mN/m
298 K, x1 = 0.0374 | 61.4 mN/m
298 K, x1 = 0.0376 | 61.4 mN/m
298 K, x1 = 0.0489 | 62.2 mN/m
298 K, x1 = 0.0579 | 61.2 mN/m
298 K, x1 = 0.06 | 62.3 mN/m
298 K, x1 = 0.0627 | 60.4 mN/m
298 K, x1 = 0.0764 | 58.8 mN/m
298 K, x1 = 0.085 | 60.3 mN/m
298 K, x1 = 0.0932 | 59.7 mN/m
298 K, x1 = 0.1083 | 59.5 mN/m
300.9 K, x1 = 0.06 | 61.4 mN/m
301.2 K, x1 = 0.06 | 61.5 mN/m
301.6 K, x1 = 0.06 | 61.8 mN/m
302 K, x1 = 0.06 | 61.8 mN/m
302.3 K, x1 = 0.012 | 66.9 mN/m
302.7 K, x1 = 0.012 | 66.8 mN/m

298 K, Pycnometric method
Conditions | mass density [kg/m3]
x1 = 0.008 | 1016
x1 = 0.017 | 1031
x1 = 0.027 | 1048
x1 = 0.037 | 1063
x1 = 0.049 | 1084
x1 = 0.062 | 1103
x1 = 0.077 | 1121
x1 = 0.094 | 1135
